Test results: US10765116B2, “2-[3-(alkylsulfonyl)-2H-indazol-2-yl]-3H-imidazo[4,5-B]pyridine derivatives and similar compounds as pesticides” (BAYER CROPSCIENCE AKTIENGESELLSCHAFT, priority 2016, dated 2020)

How the values were obtained:
Type in all cases: in vivo
Myzus persicae [1] = test: Myzus persicae oral test; conditions: 120 h, mixed population of green peach aphids, after 5 days, read-out: efficacy; for pest or weed control at 4 ppm: application rate 4 ppm; for pest or weed control at 20 ppm: application rate 20 ppm
Description: Solvent: 100 parts by weight of acetone To produce a suitable active ingredient formulation, 1 part by weight of active ingredient is dissolved with the stated parts by weight of solvent and made up to the desired concentration with water. 50 μl of the active ingredient formulation are transferred into microtitre plates and made up to a final volume of 200 μl with 150 μl of IPL41 insect medium (33%+15% sugar). Subsequently, the plates are sealed with parafilm, which a mixed population of green peach aphids (Myzus persicae) within a second microtitre plate is able to puncture and imbibe the solution through it. After 5 days, the efficacy in % is determined. 100% means that all the aphids have been killed; 0% means that no aphids have been killed.

Phaedon cochleariae = Phaedon cochleariae spray test; conditions: application rate 100 g/ha, Chinese cabbage leaf discs, larvae, after 7 days
Description: (§1) Solvent: 78.0 parts by weight of acetone • • 1.5 parts by weight of dimethylformamide Emulsifier: alkylaryl polyglycol ether To produce a suitable active ingredient formulation, 1 part by weight of active ingredient is dissolved with the specified parts by weight of solvent and made up to the desired concentration with water containing an emulsifier concentration of 1000 ppm. To produce further test concentrations, the formulation is diluted with emulsifier-containing water. Discs of Chinese cabbage leaves (Brassica pekinensis) are sprayed with an active ingredient formulation of the desired concentration and, after drying, populated with larvae of the mustard beetle (Phaedon cochleariae). After 7 days, the efficacy in % is determined. 100% means that all the beetle larvae have been killed; 0% means that no beetle larvae have been killed.

Lucilia cuprina = Lucilia cuprina test; conditions: application rate 100 ppm, L1 larvae, minced horsemeat, after 2 days
Description: Solvent: dimethyl sulfoxide To produce a suitable active ingredient formulation, 10 mg of active ingredient are mixed with 0.5 ml of dimethyl sulfoxide, and the concentrate is diluted with water to the desired concentration. About 20 L1 larvae of the Australian sheep blowfly (Lucilia cuprina) are transferred into a test vessel containing minced horsemeat and the active ingredient formulation of the desired concentration. After 2 days, the kill in % is determined. 100% means that all the larvae have been killed; 0% means that no larvae have been killed.

Myzus persicae [2] = test: Myzus persicae spray test; conditions: application rate 100 g/ha, Chinese cabbage leaf discs, all stages, after 5 days
Description: as §1, with “78” for “78.0”, “pekinensis) infested by all stages of the green peach aphid (Myzus persicae)” for “pekinensis)”, “concentration.” for “concentration and, after drying, populated with larvae of the mustard beetle (Phaedon cochleariae).”, “5” for “7”, “aphids” for “beetle larvae”

Ctenocephalides felis [3] = test: Ctenocephalides felis in vitro contact test with adult cat fleas; conditions: application rate 5 μg/cm^2 (=500 g/ha), coated glass tube, after 48 h
Description: For the coating of the test tubes, 9 mg of active ingredient are first dissolved in 1 ml of acetone p.a. and then diluted to the desired concentration with acetone p.a. 250 μl of the solution are distributed homogeneously on the inner walls and the base of a 25 ml glass tube by turning and rocking on an orbital shaker (rocking rotation at 30 rpm for 2 h). With 900 ppm of active ingredient solution and internal surface area 44.7 cm^2, given homogeneous distribution, an area-based dose of 5 μg/cm^2 is achieved. After the solvent has evaporated off, the glass tubes are populated with 5-10 adult cat fleas (Ctenocephalides felis), sealed with a perforated plastic lid and incubated in a horizontal position at room temperature and ambient humidity. After 48 h, efficacy is determined. To this end, the tubes are stood upright and the fleas are knocked to the base of the tube. Fleas which remain motionless at the base or move in an uncoordinated manner are considered to be dead or moribund. […] 100% efficacy means that all the fleas were dead or moribund. 0% efficacy means that no fleas were harmed.

Spodoptera frugiperda = Spodoptera frugiperda spray test; conditions: application rate 100 g/ha, maize leaf discs, caterpillars, after 7 days
Description: as §1, with “water. Leaf discs” for “water. Discs”, “of maize (Zea mays)” for “of Chinese cabbage leaves (Brassica pekinensis)”, “with caterpillars” for “with larvae”, “the armyworm (Spodoptera frugiperda).” for “the mustard beetle (Phaedon cochleariae).”, “the caterpillars” for “the beetle larvae”, “no caterpillar has” for “no beetle larvae have”

Musca domestica = Musca domestica test; conditions: application rate 100 ppm, adult houseflies, after 2 days
Description: Solvent: dimethyl sulfoxide
To produce a suitable active ingredient formulation, 10 mg of active ingredient are mixed with 0.5 ml of dimethyl sulfoxide, and the concentrate is diluted with water to the desired concentration.
Vessels containing a sponge treated with sugar solution and the active ingredient formulation of the desired concentration are populated with 10 adult houseflies (Musca domestica).
After 2 days, the kill in % is determined. 100% means that all of the flies have been killed; 0% means that none of the flies have been killed.

Rhipicephalus sanguineus = Rhipicephalus sanguineus in vitro contact test with adult brown dog ticks; conditions: application rate 5 μg/cm^2 (=500 g/ha), coated glass tube, after 48 h
Description: For the coating of the test tubes, 9 mg of active ingredient are first dissolved in 1 ml of acetone p.a. and then diluted to the desired concentration with acetone p.a. 250 μl of the solution are distributed homogeneously on the inner walls and the base of a 25 ml glass tube by turning and rocking on an orbital shaker (rocking rotation at 30 rpm for 2 h). With 900 ppm of active ingredient solution and internal surface area 44.7 cm^2, given homogeneous distribution, an area-based dose of 5 μg/cm^2 is achieved. After the solvent has evaporated off, the tubes are populated with 5-10 adult dog ticks (Rhipicephalus sanguineus), sealed with a perforated plastic lid and incubated in a horizontal position in the dark at room temperature and ambient humidity. After 48 h, efficacy is determined. To this end, the ticks are knocked to the base of the tube and incubated on a hotplate at 45-50° C. for not more than 5 min. Ticks which remain motionless on the base or move in such an uncoordinated manner that they are unable to deliberately avoid the heat by climbing upwards are considered to be dead or moribund. […] An efficacy of 100% means that all the ticks were dead or moribund. 0% efficacy means that none of the ticks were harmed.

Ctenocephalides felis [4] = test: Ctenocephalides felis oral test; conditions: application rate 100 ppm in citrated cattle blood, adult cat fleas, after 2 days
Description: Solvent: dimethyl sulfoxide To produce a suitable active ingredient formulation, 10 mg of active ingredient are mixed with 0.5 ml of dimethyl sulfoxide. Dilution with citrated cattle blood gives the desired concentration. About 20 unfed adult cat fleas (Ctenocephalides felis) are placed into a chamber which is closed at the top and bottom with gauze. A metal cylinder whose bottom end is closed with parafilm is placed onto the chamber. The cylinder contains the blood/active ingredient formulation, which can be imbibed by the fleas through the parafilm membrane. After 2 days, the kill in % is determined. 100% means that all of the fleas have been killed; 0% means that none of the fleas have been killed.

Structure (SMILES): CCS(=O)(=O)c1c2ccccc2nn1-c1nc2cc(C(F)(F)F)cnc2n1C [Example I-3]
- pest or weed control at 4 ppm (Myzus persicae [1]): 90%
- efficacy (Phaedon cochleariae): 100%
- efficacy (kill) (Lucilia cuprina): 100%
- efficacy (Myzus persicae [2]): 100%

Structure (SMILES): CCS(=O)(=O)c1c2cc(C(F)(F)F)ccc2nn1-c1nc2cc(C(F)(F)F)cnc2n1C [Example I-5]
- pest or weed control at 4 ppm (Myzus persicae [1]): 100%
- efficacy (Phaedon cochleariae): 100%
- efficacy (Ctenocephalides felis [3]): 100%
- efficacy (Spodoptera frugiperda): 100%
- efficacy (kill) (Lucilia cuprina): 100%

Structure (SMILES): CCS(=O)(=O)c1c2c(nn1-c1nc3cc(C(F)(F)F)cnc3n1C)CC(C)(C)CC2 [Example I-11]
- pest or weed control at 4 ppm (Myzus persicae [1]): 100%
- efficacy (Myzus persicae [2]): 90%

Structure (SMILES): CCS(=O)(=O)c1c2ccc(C(F)(F)F)cc2nn1-c1nc2cc(C(F)(F)F)cnc2n1C [Example I-6]
- pest or weed control at 4 ppm (Myzus persicae [1]): 100%
- pest or weed control at 20 ppm (Myzus persicae [1]): 100%
- efficacy (Phaedon cochleariae): 100%
- efficacy (Ctenocephalides felis [3]): 100%
- efficacy (kill) (Musca domestica): 90%
- efficacy (Spodoptera frugiperda): 100%
- efficacy (kill) (Lucilia cuprina): 100%

Structure (SMILES): CCS(=O)(=O)c1c2cccc(Cl)c2nn1-c1nc2cc(C(F)(F)F)cnc2n1C [Example I-4]
- pest or weed control at 4 ppm (Myzus persicae [1]): 90%
- efficacy (Phaedon cochleariae): 100%

Structure (SMILES): CCS(=O)(=O)c1c2c(nn1-c1nc3cc(C(F)(F)F)cnc3n1C)CCCC2 [Example I-10, 2-[3-(Ethylsulfonyl)-4,5,6,7-tetrahydro-2H-indazol-2-yl]-3-methyl-6-(trifluoromethyl)-3H-imidazo[4,5-b]pyridine]
- efficacy (Rhipicephalus sanguineus): 100%
- pest or weed control at 4 ppm (Myzus persicae [1]): 100%
- efficacy (Ctenocephalides felis [3]): 100%
- efficacy (kill) (Lucilia cuprina): 100%
- efficacy (Myzus persicae [2]): 90%

Structure (SMILES): CCS(=O)(=O)c1c2ccc(C(F)(F)F)cc2nn1-c1nc2cc(C(F)(F)F)ncc2n1C [Example I-12]
- pest or weed control at 4 ppm (Myzus persicae [1]): 100%
- efficacy (Phaedon cochleariae): 100%
- efficacy (Spodoptera frugiperda): 100%

Structure (SMILES): CCS(=O)(=O)c1c2cc(Cl)ccc2nn1-c1nc2cc(C(F)(F)F)cnc2n1C [Example I-2, 2-[5-Chloro-3-(ethylsulfonyl)-2H-indazol-2-yl]-3-methyl-6-(trifluoromethyl)-3H-imidazo[4,5-b]pyridine]
- pest or weed control at 4 ppm (Myzus persicae [1]): 100%
- pest or weed control at 20 ppm (Myzus persicae [1]): 100%
- efficacy (Phaedon cochleariae): 100%
- efficacy (Ctenocephalides felis [3]): 100%
- efficacy (Spodoptera frugiperda): 100%
- efficacy (kill) (Lucilia cuprina): 100%
- efficacy (kill) (Ctenocephalides felis [4]): 80%

Structure (SMILES): CCS(=O)(=O)c1c2ccc(Cl)cc2nn1-c1nc2cc(C(F)(F)F)cnc2n1C [Example I-1, 2-[6-Chloro-3-(ethylsulfonyl)-2H-indazol-2-yl]-3-methyl-6-(trifluoromethyl)-3H-imidazo[4,5-b]pyridine]
- pest or weed control at 4 ppm (Myzus persicae [1]): 90%
- efficacy (Phaedon cochleariae): 100%
- efficacy (Spodoptera frugiperda): 100%
- efficacy (kill) (Lucilia cuprina): 100%
